Where two headings read alike, the source gives them in different places.
Columns and labels:
[1] = system: morphine-induced motility; assay: Antagonism of morphine-induced motility; type: in vivo; conditions: Mus musculus; mice; read-out: MED (minimum effective dose), morphine-induced motility
Source text: (b) Antagonism of morphine-induced motility (Christensen et al.: Muscimol antagonizes morphine hypermotility without potentiation of analgesia. European J. Pharmacol., 1978, 48, 459-462).

[2] = system: isoniazide-induced convulsions; assay: Antagonism of isoniazide-induced convulsions; type: in vivo; conditions: Mus musculus, ip; mice, test compound i.p., isoniazide 300 mg/kg s.c.; read-out: MED (minimum effective dose), isoniazide-induced convulsions
Protocol: (c) Antagonism of isoniazide-induced convulsions (Modification (mice, two times lower concentration of isoniazide) of Mao et al.: Evidence for an involvement of GABA in the mediation of cerebellar c-GMP decrease and the anticonvulsant action of diazepam. Naunyn-Smiedeberg's Arch. Pharmacol. 1975, 289, 369-378).
Conditions and procedure for isoniazide antagonism test:
Isoniazide 300 mg/kg s.c.
Five mice are used for each dose level. Immediately after administration of test substance, isoniazide 300 mg/kg is injected s.c. This dose of isoniazide induces intermittent tonic clonic seizures within 60 minutes. The calculations are performed as on "on line procedure" on the EDP-terminal.

[3] = system: methylphenidate-induced gnawing; assay: Potentiation of methylphenidate-induced gnawing; type: in vivo; conditions: Mus musculus, read-out: ED50 (the dose which causes potentiation in 50% of the animals), mice
Source text: (a) Potentiation of methylphenidate-induced gnawing (Scheel-Kruger et al.: Muscimol differentially facilitates stereotypy but antagonizes motility induced by dopaminergic drugs. A complex GABA-DOPAMINE interaction. Life Sciences, 1978, Vol. 22, 75-84).

[4] = system: substantia nigra; assay: Unilateral injections into substantia nigra in rats; type: in vivo, rat
Protocol: (b) Unilateral injections. 0.1 and 0.5 μg of Ia,Hbr have been injected.

[5] = Acute toxicity (mice); conditions: mouse, in vivo
[6] = system: substantia nigra; assay: Bilateral injections into substantia nigra in rats; type: in vivo, rat
Protocol: (a) Bilateral injections. 0.1, 0.5, and 1.0 μg of Ia,HBr have been injected.

[7] = system: lumbar dorsal horn interneurones and Renshaw cells; assay: Microelectrophoretic experiments on central neurones of anaesthetized cats; type: in vivo; conditions: bicuculline methochloride (BMC), cat central neurones
Protocol: In order to study the interactions of the compound Ia with the central GABA receptors in vivo, the compound Ia was tested in microelectrophoretic experiments. Experiments were performed on lumbar dorsal horn interneurones and Renshaw cells of cats anaesthetized with pentobarbitone sodium. The approximate potency of the depressant actions of the compound was assessed relative to that of GABA on the basis of electrophoretic currents required to produce equal and submaximal inhibitions of the firing of the central neurones. The inhibitory action of Ia on central neurones was antagonized by the specific GABA antagonist bicuculline methochloride (BMC).

[8] = system: GABA uptake system; assay: Interaction with GABA uptake system; type: biochemical; parameters: dose or concentration left out as unconfirmed
[9] = system: L-glutamate 1-carboxylase; assay: Interaction with GABA metabolizing enzyme (carboxylase); type: biochemical; conditions: concentrations of 10^-3 M
[10] = target: GABA:2-oxo-glutarate aminotransferase (Homo sapiens, UniProt P80404); assay: Interaction with GABA metabolizing enzyme (aminotransferase); type: biochemical; conditions: concentrations of 10^-3 M
Sequence of GABA:2-oxo-glutarate aminotransferase (P80404 29-500): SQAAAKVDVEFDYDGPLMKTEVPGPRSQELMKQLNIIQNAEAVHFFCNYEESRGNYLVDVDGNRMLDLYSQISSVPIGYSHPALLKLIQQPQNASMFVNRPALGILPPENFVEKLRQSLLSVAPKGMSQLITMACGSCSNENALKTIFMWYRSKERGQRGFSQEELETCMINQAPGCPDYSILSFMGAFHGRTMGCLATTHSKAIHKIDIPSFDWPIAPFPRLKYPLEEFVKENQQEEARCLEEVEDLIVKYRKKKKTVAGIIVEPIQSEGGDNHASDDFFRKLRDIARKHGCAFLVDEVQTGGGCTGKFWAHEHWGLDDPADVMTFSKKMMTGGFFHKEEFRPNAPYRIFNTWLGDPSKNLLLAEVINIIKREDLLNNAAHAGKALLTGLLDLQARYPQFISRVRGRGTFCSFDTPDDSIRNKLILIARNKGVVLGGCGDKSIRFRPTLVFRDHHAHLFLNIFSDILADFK

[11] = iv, read-out: Acute Toxicity (Mice) LD50 i.v.
[12] = po, read-out: Acute Toxicity (Mice) LD50 p.o.

Row | SMILES | minimal effective dose [1] | minimal effective dose [2] | ED50 [3] | LD50 [5, 11] | LD50 [5, 12] | Reversible antagonism by BMC [7] | other results
1 | Oc1noc2c1CCNC2 [Compound Ia,HBr, 3-Hydroxy-4,5,5,7-tetrahydroisoxazolo[5,4-pyridinium bromide] | 1 mg/kg | 1.3 mg/kg | 3 mg/kg | 80 mg/kg | > 320 mg/kg |  | Behaviour after unilateral injection into substantia nigra ([4]; 0.1 and 0.5 μg injected): strong and prolonged contralateral turning; Behaviour after bilateral injection into substantia nigra ([6]; 0.1, 0.5 and 1.0 μg injected): pronounced stereotypic behaviour
2 | NCCCC(=O)O [GABA, gamma-aminobutyric acid, reference compound] |  |  |  |  |  | yes | 
3 | Oc1noc2c1CCNC2 [Ia, 4,5,6,7-Tetrahydroisoxazolo[5,4-c]pyridin-3-ol zwitterion] |  |  |  |  |  | yes | Potency compared with muscimol, unilateral injection ([4]; substantia nigra): weaker than muscimol; Interaction with the GABA uptake system [8]: did not interact; Potency compared with muscimol, bilateral injection ([6]; substantia nigra): weaker than muscimol; Interaction with L-glutamate 1-carboxylase [9]: did not interact; Interaction with GABA:2-oxo-glutarate aminotransferase [10]: did not interact
4 | NCc1cc(=O)[nH]o1 [Muscimol, muscimol] |  |  |  | 7 mg/kg | 22 mg/kg |  | LD50 ([5]; ip, read-out: Acute Toxicity (Mice) LD50 i.p.): 12 mg/kg
5 | NCc1cc(=O)[nH]o1 [Muscimol,HBr, reference compound] | 0.6 mg/kg | 0.6 mg/kg | 0.7 mg/kg |  |  |  | 

— patent US4278676A, “Heterocyclic compounds” (H. Lundbeck & Co. A/S, priority 1977, dated 1981)
